The source of these data is US20260297088A1, “A 1,5-DIHYDRO-4H-PYRROLO[3,2-C] PYRIDIN-4-ONE FOR USE IN THE TREATMENT OF CANCER” (ANTARES THERAPEUTICS, INC., priority 2023, published 2026).

The test system of assay [1] is BaF3 ASV (EGFR exon 20 ASV Ins V769_D770). Description: Ba/F3 cell viability (CellTiter-Glo), EGFR exon 20 ASV Ins V769_D770. It is filed as cell-based, murine. The following applies: Mus musculus, Ba/F3 EGFR exon 20 ASV Ins V769_D770, 72 hours. An excerpt:
(§1) Cell lines are generated by transducing Ba/F3 cells with retroviruses containing vectors with EGFR WT, EGFR exon 20 NPG Ins D770_N771, EGFR exon 20 ASV Ins V769_D770, EGFR exon 20 SVD Ins D770_N771, or EGFR exon 20 FQEA Ins A763_V764 genes and a puromycin selection marker. Transduced cells are selected with puromycin for 7 days and are then be transferred into culture media without Interleukin 3 (IL3). EGFR WT cells are maintained with supplemental EGF. Surviving cells are confirmed to express EGFR by Western blot and maintained as a pool. The IC50 data are included in Table 6.
(§2) • 1 Cell seeding • 1.1 Cells are harvested from flask into cell culture medium and the cell number counted. • 1.2 Cells are diluted with culture medium to the desired density and 40 L of cell suspension is added into each well of 384-well cell culture plate and the seeding density is 600 cells/well. • 2 Compound preparation and treatment • 2.1 Test compounds are dissolved to 10 mM in a DMSO stock solution. 45 µL of stock solution is transferred to a 384 polypropylene plate (pp-plate). Perform 3-fold, 10-point dilution via transferring 15 L compound into 30 L DMSO using a TECAN (EVO200) liquid handler. • 2.2 Spin plates at room temperature at 1,000 RPM for 1 minute. • 2.3 Transfer 120 nL of diluted compound from compound source plate into the cell plate. • 2.4 After compound treatment for 72 hours, perform CTG detection for compound treatment plates as described in “Detection” section. • 3 Detection • 3.1 Plates are removed from incubators and equilibrated at room temperature for 15 minutes. • 3.2 Thaw the CellTiter Glo reagents and allow to equilibrate to room temperature before the experiment. • 3.3 Add 40 µL of CellTiter-Glo reagent into each well (at 1:1 to culture medium). Then place the plates at room temperature for 30 min followed by reading on EnVision. • 4 Data analysis • 4.1 Inhibition activity is calculated following the formula below:
(§3) [formula] • where HC is obtained from cells treated with 0.1% DMSO only; and LC is obtained from culture medium only. • 4.2 2. Calculate the IC50 by fitting the Curve using Xlfit (v5.3.1.3), equation 201:
(§4) [formula] • The IC50 date are included in Table 6.
Background: Cellular ATP, detected with luciferase, serves as a proxy for viable cell number.

In assay [2] the test system is BaF3 NPG (EGFR exon 20 NPG Ins D770_N771). Description: Ba/F3 cell viability (CellTiter-Glo), EGFR exon 20 NPG Ins D770_N771. It is filed as cell-based, murine. The following applies: Mus musculus, Ba/F3 EGFR exon 20 NPG Ins D770_N771, 72 hours.
From the text: as §1, §2, §3, §4

For assay [3], the system named is EGFR L858R phosphorylation (pEGFR). Description: Inhibitor activity on EGFR phosphorylation (pEGFR AlphaLISA), L858R. The following applies: 2 hours. It is filed as cell-based. Background: Alpha assays give light when donor and acceptor beads are brought close together.
Assay [4] relates to EGFR L858R/C797S phosphorylation (pEGFR). Description: Inhibitor activity on EGFR phosphorylation (pEGFR AlphaLISA), L858R/C797S. It is filed as cell-based. The following applies: 2 hours.
In a further assay the test system is BaF3 L858R. Description: Ba/F3 cell viability (CellTiter-Glo), EGFR L858R. It is filed as cell-based, murine. The following applies: Mus musculus, 72 hours.
For assay [5], the system named is EGFR phosphorylation (pEGFR) in CUTO14 cells. Description: Inhibitor activity on EGFR phosphorylation (pEGFR AlphaLISA), CUTO14 cells. It is filed as cell-based. Conditions: 2 hours. An excerpt:
EGFR mutant Ba/F3 cells were generated by transduction with retrovirus containing vectors expressing EGFR exon 20 NPG Ins D770_N771, EGFR exon 20 ASV Ins V769_D770, or EGFR exon 20 SVD Ins D770_N771 genes along with a puromycin selection marker. Transduced cells are selected with puromycin for 7 days and are then be transferred into culture media without Interleukin 3 (IL3). Surviving cells are confirmed to express EGFR by Western blot and maintained as a pool. CUTO14 cells were obtained from Dr. Robert C. Doebele at the University of Colorado. The IC50 data are included in Table 6.
• 1 Cell seeding • 1.1 Cells are harvested from flask into cell culture medium and the cell number counted. • 1.2 Cells are diluted with culture medium to the desired density and 40 μL of cell suspension is added into each well of 384-well cell culture plate and the seeding density is 50K cells/well (Ba/F3) or 12.5K cells/well (CUTO14). • 2 Compound preparation and treatment • 2.1 Test compounds are dissolved to 10 mM in a DMSO stock solution. 45 µL of stock solution is transferred to a 384 polypropylene plate (pp-plate). Perform 3-fold, 10-point dilution via transferring 15 L compound into 30 L DMSO using a TECAN (EVO200) liquid handler. • 2.2 Spin plates at room temperature at 1,000 RPM for 1 minute. • 2.3 Transfer 5 nL of diluted compound from compound source plate into the cell plate. • 2.4 After compound treatment for 2 hours, perform pEGFR detection by AlphaLISA for compound treatment plates as described in “Detection” section. • 3 Detection by pEGFR AlphaLISA (Perkin-Elmer) • 3.1 Plates are removed from incubators and equilibrated at room temperature for 10 minutes, and media was removed • 3.2 10 µL of lysis buffer is added and plates shaken at 600 rpm for 1 hr. • 3.3 Prepare acceptor mix just before use and dispense 5 μL of acceptor mix to all the wells. […] Mix well on the shaker, seal and wrap in aluminum foil and incubate 1.5 hrs at room temperature in the dark • 3.5 Transfer 18.5 μL mixture to OptiPlate 384, and read using an Envision.

For another assay, the system named is BaF3 L858R/C797S. Description: Ba/F3 cell viability (CellTiter-Glo), EGFR L858R/C797S. It is filed as cell-based, murine. Conditions: Mus musculus, 72 hours.
For assay [6], the system named is BaF3 SVD (EGFR exon 20 SVD Ins D770_N771). Description: Ba/F3 cell viability (CellTiter-Glo), EGFR exon 20 SVD Ins D770_N771. It is filed as cell-based, murine. Conditions: Mus musculus, Ba/F3 EGFR exon 20 SVD Ins D770_N771, 72 hours.
From the text: as §1, §2, §3, §4

For another assay, the system named is BaF3 Del19. Description: Ba/F3 cell viability (CellTiter-Glo), EGFR Del19. Conditions: Mus musculus, 72 hours. It is filed as cell-based, murine.
In assay [7] the test system is EGFR Del19 phosphorylation (pEGFR). Description: Inhibitor activity on EGFR phosphorylation (pEGFR AlphaLISA), Del19. Conditions: 2 hours. It is filed as cell-based.
Another assay concerns BaF3 WT (EGFR WT). Description: Ba/F3 cell viability (CellTiter-Glo), EGFR WT. The following applies: Mus musculus, supplemental EGF, 72 hours. It is filed as cell-based, murine.
From the text: as §1, §2, §3, §4

Assay [8] has as its system EGFR containing one or more mutations versus wild type EGFR. Conditions: compound of WO 2022/076831; cited from earlier work.

Usually IC50 stands for the concentration needed to halve the response being measured.

For the compound `COc1c(Cl)cccc1Nc1c(-c2ccnc(C)n2)[nH]c2c(CCO)c[nH]c(=O)c12` [Compound 5], the IC50 in assay [1] was 100 to 1000 nM; in assay [2], 100 to 1000 nM; in assay [3], less than 100 nM; in [4], less than 100 nM; in the assay with BaF3 L858R, less than 100 nM; in [5] it was 100 to 1000 nM. Moreover, the 50% inhibitory concentration (IC50) with BaF3 L858R/C797S was 100 to 1000 nM; in assay [6] it was 100 to 1000 nM; with BaF3 Del19, less than 100 nM; in [7], less than 100 nM; with BaF3 WT (EGFR WT), no less than 1000 nM.
Take `COCCc1c[nH]c(=O)c2c(Nc3cccc(Cl)c3OC)c(-c3ccncn3)[nH]c12` [Compound 2]: the IC50 in assay [1] is 100 to 1000 nM; in [2], 100 to 1000 nM; in assay [3] it was less than 100 nM; in assay [4] it was less than 100 nM; in the assay on BaF3 L858R, less than 100 nM; in assay [5], less than 100 nM. For the same compound, the IC50 in the assay on BaF3 L858R/C797S is less than 100 nM; in assay [6], less than 100 nM; in the assay with BaF3 Del19, less than 100 nM; in assay [7] it was less than 100 nM; in the assay with BaF3 WT (EGFR WT), no less than 1000 nM.
Regarding `COCCc1c[nH]c(=O)c2c(Nc3cccc(Cl)c3OC)c(-c3ccncc3F)[nH]c12` [Compound 3], the IC50 in assay [1] was 100 to 1000 nM; with BaF3 L858R it was less than 100 nM; in assay [6] it was 100 to 1000 nM; in the assay on BaF3 Del19 it was less than 100 nM; with BaF3 WT (EGFR WT), no less than 1000 nM.
As to `COCCc1c[nH]c(=O)c2c(Nc3cccc(F)c3OC)c(-c3ccnc(C)n3)[nH]c12` [Compound 4], the IC50 in assay [1] was 100 to 1000 nM; in assay [2], 100 to 1000 nM; in assay [3] it was less than 100 nM; in assay [4], less than 100 nM; in assay [5], less than 100 nM; in the assay on BaF3 L858R/C797S, less than 100 nM. The IC50 in [6] was 100 to 1000 nM; in [7], less than 100 nM; in the assay with BaF3 WT (EGFR WT), no less than 1000 nM.
For `COCC[C@H]1CNC(=O)c2c1[nH]c(-c1ccnc(C)n1)c2Nc1cccc(Cl)c1OC` [Compound 463b], the “inhibition of mutant EGFR relative to wild type EGFR” value in [8] was “greater inhibition of EGFR containing one or more mutations relative to inhibition of wild type EGFR”.
As to `COc1c(F)cccc1Nc1c(-c2ccnc(C)n2)[nH]c2c(CCO)c[nH]c(=O)c12` [Compound 6], the half-inhibitory concentration (IC50) is no less than 1000 nM in assay [1]; 100 to 1000 nM in assay [2]; 100 to 1000 nM in [3]; less than 100 nM in assay [4]; 100 to 1000 nM with BaF3 L858R/C797S; 100 to 1000 nM in assay [6]. The figures for the IC50 (in assay [7]; in the assay with BaF3 WT (EGFR WT)) were less than 100 nM and no less than 1000 nM, respectively.
